Three compounds from ChEMBL document CHEMBL1146245, “Antitumor agents. 258. Syntheses and evaluation of dietary antioxidant--taxoid conjugates as novel cytotoxic agents” (2007) can be followed below.

In brackets after ≈: the same amount, converted by molar mass. Activity calls are given as the source filed them. The rule behind the calls is not given here.

Holding throughout (assay type): functional
One experiment deals with 1A9. Briefly: Cytotoxicity against human 1A9 cells by sulforhodamine B assay.
Another experiment relates to KB. Briefly: Cytotoxicity against human KB cells by sulforhodamine B assay.
The next experiment relates to A549. Briefly: Cytotoxicity against human A549 cells.
The next experiment has as its system HCT-8. Briefly: Cytotoxicity against human HCT8 cells.
The test system of another experiment is A-431. Briefly: Cytotoxicity against human A431 cells.
Experiment [1] is described as follows: Cytotoxicity against MDR human KB-VIN cells expressing P-glycoprotein.

On to VITAMIN E, for which the result (in the experiment with 1A9; in the experiment on KB; in the experiment on A549; with HCT-8; in experiment [1]) was inactive. The compound also came in with an ED50 with A-431 of 0.75 µg/mL.

For `CCN(CC)CCC(=O)O[C@H]1C[C@H]2OC[C@@]2(OC(C)=O)[C@H]2[C@H](OCc3ccccc3)[C@]3(O)C[C@H](OC(=O)[C@H](OC(=O)CCC(=O)Oc4c(C)c(C)c5c(c4C)OC(C)(CCC[C@@H](C)CCC[C@@H](C)CCCC(C)C)CC5)[C@@H](NCc4ccccc4)c4ccccc4)C(C)=C([C@@H](OC(C)=O)C(=O)[C@]12C)C3(C)C` (stereo in doubt; 27a), the result (in the experiment with 1A9; in the experiment on KB; in the experiment with A549; with HCT-8; in the experiment on A-431; in experiment [1]) was inactive.

As for `CC(=O)O[C@H]1C(=O)[C@@]2(C)[C@H]([C@H](OCc3ccccc3)[C@]3(O)C[C@H](OC(=O)[C@H](OC(=O)CCC(=O)Oc4c(C)c(C)c5c(c4C)OC(C)(CCC[C@@H](C)CCC[C@@H](C)CCCC(C)C)CC5)[C@@H](NCc4ccccc4)c4ccccc4)C(C)=C1C3(C)C)[C@]1(OC(C)=O)CO[C@@H]1C[C@@H]2O` (stereo partly drawn), the result (with 1A9; with KB; in the experiment with A549; in the experiment on HCT-8; in experiment [1]) was inactive. Moreover, the EC50 in the experiment on A-431 (read-out: ED50 (the source's name)) stood at 0.1 µg/mL (≈ 0.0747 µM).
